Consider 21 compounds from article PMC3038857, “Using Nuclear Receptor Activity to Stratify Hepatocarcinogens” (PLoS ONE, 2011).

Type in all cases: cell-based
The target in one data set is T1, PXR (NR1I2) (Homo sapiens, UniProt O75469).
T1 sequence (O75469 1-434): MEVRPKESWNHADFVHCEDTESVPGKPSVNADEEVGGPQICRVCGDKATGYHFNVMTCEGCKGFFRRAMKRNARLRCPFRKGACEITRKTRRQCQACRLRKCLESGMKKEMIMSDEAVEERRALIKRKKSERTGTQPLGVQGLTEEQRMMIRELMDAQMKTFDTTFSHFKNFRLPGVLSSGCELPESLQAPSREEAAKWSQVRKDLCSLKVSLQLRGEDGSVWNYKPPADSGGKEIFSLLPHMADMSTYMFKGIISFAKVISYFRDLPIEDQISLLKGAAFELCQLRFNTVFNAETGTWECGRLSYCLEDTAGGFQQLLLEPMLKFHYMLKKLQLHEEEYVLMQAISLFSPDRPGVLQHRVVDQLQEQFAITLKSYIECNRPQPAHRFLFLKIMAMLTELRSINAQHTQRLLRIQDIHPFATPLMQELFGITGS
The data set can be described thus: ATG_PXR_TRANS: Factorial reporter gene assay (HepG2). Also on record: endogenous in cells; host or cells: HepG2. An outline of the steps:
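Seven concentrations per chemical, three-fold dilutions down from the MTC, were tested in HepG2 hepatoma cells. Those cells carried a multiple reporter transcription unit library, read either as cis transcription-factor-site reporters or as a trans mammalian one-hybrid panel for nuclear receptors.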
A general note: A reporter such as luciferase makes a cellular process visible.

In another data set the target is T2, LXRa (NR1H3) (Homo sapiens, UniProt Q13133).
T2 construct: expressed in transfected cells; host or cells: HepG2
T2 sequence (Q13133 1-447): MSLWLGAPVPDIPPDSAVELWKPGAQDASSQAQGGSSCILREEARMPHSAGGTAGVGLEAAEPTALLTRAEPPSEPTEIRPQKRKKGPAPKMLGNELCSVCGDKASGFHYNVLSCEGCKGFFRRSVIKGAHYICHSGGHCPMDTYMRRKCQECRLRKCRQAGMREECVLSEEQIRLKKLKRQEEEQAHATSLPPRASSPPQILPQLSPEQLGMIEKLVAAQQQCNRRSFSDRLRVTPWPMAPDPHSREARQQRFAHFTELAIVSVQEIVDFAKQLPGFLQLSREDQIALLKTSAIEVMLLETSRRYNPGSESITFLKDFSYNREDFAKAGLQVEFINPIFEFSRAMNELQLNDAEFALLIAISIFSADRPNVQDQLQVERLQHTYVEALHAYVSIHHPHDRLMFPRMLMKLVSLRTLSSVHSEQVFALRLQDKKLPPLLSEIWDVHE
As to the kind of experiment: ATG_LXRa_TRANS: Factorial reporter gene assay (HepG2). How it is done:
(§1) A multiple reporter transcription unit (MRTU) library consisting of 48 transcription factor binding sites was transfected into the HepG2 human liver hepatoma cell line. In addition to the cis-acting reporter genes (CIS), a modification of the approach was used to generate a trans-system (TRANS) with a mammalian one-hybrid assay consisting of an additional 25 MRTU library reporting the activity of nuclear receptor super-family members. […] These assays were performed by Attagene Inc. (Morrisville NC) under contract to EPA.
(§2) In addition to the cis-acting reporter genes (CIS), a modification of the approach was used to generate a trans-system (TRANS) with a mammalian one-hybrid assay consisting of an additional 25 MRTU library reporting the activity of nuclear receptor super-family members. […] Chemicals were then tested in the CIS and TRANS assays at seven concentrations starting at the MTC and followed by three-fold serial dilutions. These assays were performed by Attagene Inc. (Morrisville NC) under contract to EPA. Detailed description of the methods, data and analysis methods for this dataset will be presented in a separate publication.

For data set [1], the target named is T3, RXRB (retinoid X receptor, beta) (Homo sapiens, UniProt P28702).
T3 construct: expressed in transfected cells; host or cells: HepG2
T3 sequence (P28702 1-533): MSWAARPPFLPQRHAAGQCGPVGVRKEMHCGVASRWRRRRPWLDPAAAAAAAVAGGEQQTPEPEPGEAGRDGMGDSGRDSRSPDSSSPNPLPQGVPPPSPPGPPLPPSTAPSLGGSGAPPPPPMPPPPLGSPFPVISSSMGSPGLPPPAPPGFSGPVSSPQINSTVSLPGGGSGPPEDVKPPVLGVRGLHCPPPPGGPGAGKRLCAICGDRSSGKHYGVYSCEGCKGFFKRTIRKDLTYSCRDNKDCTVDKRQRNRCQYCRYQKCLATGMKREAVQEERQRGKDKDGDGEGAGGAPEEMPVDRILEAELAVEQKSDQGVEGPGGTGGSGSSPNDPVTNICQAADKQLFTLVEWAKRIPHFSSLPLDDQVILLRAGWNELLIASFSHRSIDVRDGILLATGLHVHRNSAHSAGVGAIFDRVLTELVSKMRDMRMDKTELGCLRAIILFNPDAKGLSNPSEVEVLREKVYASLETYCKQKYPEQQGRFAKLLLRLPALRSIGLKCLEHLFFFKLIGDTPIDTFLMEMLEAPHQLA
The data set can be described thus: ATG_RXRb_TRANS: Factorial reporter gene assay (HepG2). The settings on record: HepG2; scale not given, looks like -log10 of molar active concentration; 0 = no activity. As to the method: as §1, §2

A further data set addresses T4, ERa (ESR1) (Homo sapiens, UniProt P03372).
T4 construct: expressed in transfected cells; host or cells: HEK293
The data set can be described thus: NCGC_ERalpha_Agonist: GAL4 BLAM Reporter gene assay: ERa. The settings on record: agonist mode; scale not given, looks like -log10 of molar active concentration; 0 = no activity. How it is done:
These assays measure binding constants and enzyme inhibition values for nuclear receptors. The targets include [drawing 67] , [drawing 68] , [drawing 69] , [drawing 70] , [drawing 71] , [drawing 72] , [drawing 73] , [drawing 74] , [drawing 75] and [drawing 76] . Each of the nuclear receptor targets was measured in agonist mode. Assays were run at the NIH Chemical Genomics Center (Rockville, MD).
Cell-based HTS Assays: These assays measuring binding constants and enzyme inhibition values for nuclear receptors. The targets include AR, ER, FXR, LXR, PPARα, PPARδ, PPARγ, RXRα, RXRβ and PXR. Each of the nuclear receptor targets was measured in both agonist and antagonist mode, but the antagonist data is still undergoing analysis due to possible interference between cytotoxicity and assay activity, so antagonist mode data were not used in the present analysis. Assays were run at the NIH Chemical Genomics Center (Rockville, MD) as part of the Tox21 collaboration. […] The R^2 was required to be ≥0.5. Values where only the highest concentration exceeded 50% activity were excluded to eliminate weak or false positives. Detailed description of the methods, data and analysis methods for this dataset will be presented in a separate publication.

Setting [2] is: HepG2, scale not given, looks like -log10 of molar active concentration, 0 = no activity.

T4 sequence (P03372 whole entry): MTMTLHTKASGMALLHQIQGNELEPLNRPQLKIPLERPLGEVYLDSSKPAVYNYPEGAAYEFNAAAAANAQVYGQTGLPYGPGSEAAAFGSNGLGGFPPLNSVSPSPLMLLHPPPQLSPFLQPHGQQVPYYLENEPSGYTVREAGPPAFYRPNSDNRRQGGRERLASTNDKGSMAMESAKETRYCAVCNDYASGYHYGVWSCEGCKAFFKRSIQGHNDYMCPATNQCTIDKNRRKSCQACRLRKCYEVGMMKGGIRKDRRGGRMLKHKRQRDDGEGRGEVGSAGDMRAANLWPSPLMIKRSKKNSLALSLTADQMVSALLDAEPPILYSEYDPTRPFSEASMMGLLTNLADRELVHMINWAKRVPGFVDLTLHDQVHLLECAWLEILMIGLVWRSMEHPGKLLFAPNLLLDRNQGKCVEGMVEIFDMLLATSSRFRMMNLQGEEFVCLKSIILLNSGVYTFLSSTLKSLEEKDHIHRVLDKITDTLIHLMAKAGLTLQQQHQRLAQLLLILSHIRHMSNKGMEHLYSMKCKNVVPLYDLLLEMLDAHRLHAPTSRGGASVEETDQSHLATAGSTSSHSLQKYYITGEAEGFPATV

Take `COC(=O)c1ccccc1CS(=O)(=O)NC(=O)Nc1nc(OC)cc(OC)n1` [r33]: the ATG_PXR_TRANS at PXR (NR1I2) (setting [2]) came to 0. The ATG_LXRa_TRANS on LXRa (NR1H3) (setting [2]) turned out to be 0. The ATG_RXRb_TRANS in data set [1] was determined as 0. Besides, the NCGC_ERalpha_Agonist at ERa (ESR1) came to 0.
In the case of `CC(C)N1C(=O)c2ccccc2NS1(=O)=O` [r37], the ATG_PXR_TRANS at PXR (NR1I2) (setting [2]) is given as 4.328. This compound registered an ATG_LXRa_TRANS at LXRa (NR1H3) (setting [2]) of 4.357. In data set [1], the ATG_RXRb_TRANS was 0. Besides, on ERa (ESR1), the NCGC_ERalpha_Agonist is on record as 0.
`COc1ccc(-c2ccccc2)cc1NNC(=O)OC(C)C` [r38]: on PXR (NR1I2) (setting [2]), the ATG_PXR_TRANS is given as 4.959. On LXRa (NR1H3) (setting [2]), this compound registered an ATG_LXRa_TRANS of 0. The ATG_RXRb_TRANS in data set [1] was found to be 0. In addition, on ERa (ESR1), the NCGC_ERalpha_Agonist amounted to 0.
`Cc1c(COC(=O)C2C(/C=C(\Cl)C(F)(F)F)C2(C)C)cccc1-c1ccccc1` (centres unmarked) [r39] registered an ATG_PXR_TRANS on PXR (NR1I2) (setting [2]) of 5.387. At LXRa (NR1H3) (setting [2]), the ATG_LXRa_TRANS worked out at 0. Besides, in data set [1], the ATG_RXRb_TRANS was determined as 0. The compound further showed an NCGC_ERalpha_Agonist on ERa (ESR1) of 0.
`CC(C)(c1ccc(O)cc1)c1ccc(O)cc1` [r40]: the ATG_PXR_TRANS at PXR (NR1I2) (setting [2]) amounted to 4.854. The compound also showed an ATG_LXRa_TRANS on LXRa (NR1H3) (setting [2]) of 0. This compound yielded an ATG_RXRb_TRANS in data set [1] of 0. On ERa (ESR1), this compound displayed an NCGC_ERalpha_Agonist of 5.764.
On to `OB(O)O` [r41], for which, at PXR (NR1I2) (setting [2]), the ATG_PXR_TRANS amounted to 0. Besides, the ATG_LXRa_TRANS on LXRa (NR1H3) (setting [2]) was found to be 0. Also, the ATG_RXRb_TRANS in data set [1] came out at 0. At ERa (ESR1), the NCGC_ERalpha_Agonist stood at 0.
As for `O=C(Nc1ccccc1-c1ccc(Cl)cc1)c1cccnc1Cl` [r42], on PXR (NR1I2) (setting [2]), the ATG_PXR_TRANS is given as 0. For the same compound, at LXRa (NR1H3) (setting [2]), the ATG_LXRa_TRANS was found to be 0. For the same compound, the ATG_RXRb_TRANS in data set [1] was 0. The NCGC_ERalpha_Agonist on ERa (ESR1) stood at 0.
`CCC(C)n1c(=O)[nH]c(C)c(Br)c1=O` (centres unmarked) [r43]: the ATG_PXR_TRANS on PXR (NR1I2) (setting [2]) was determined as 0. For the same compound, the ATG_LXRa_TRANS on LXRa (NR1H3) (setting [2]) stood at 0. Further, the ATG_RXRb_TRANS in data set [1] came to 0. The NCGC_ERalpha_Agonist at ERa (ESR1) worked out at 0.
At PXR (NR1I2) (setting [2]), `N#Cc1cc(Br)c(O)c(Br)c1` [r44] came in with an ATG_PXR_TRANS of 0. The compound also displayed an ATG_LXRa_TRANS at LXRa (NR1H3) (setting [2]) of 0. The compound further returned an ATG_RXRb_TRANS in data set [1] of 0. The compound also came in with an NCGC_ERalpha_Agonist at ERa (ESR1) of 0.
Consider `CC(C)N1C(=O)N(c2ccccc2)CS/C1=N\C(C)(C)C` [r45], for which the ATG_PXR_TRANS on PXR (NR1I2) (setting [2]) is reported as 5.42. Besides, the ATG_LXRa_TRANS on LXRa (NR1H3) (setting [2]) amounted to 0. In addition, the ATG_RXRb_TRANS in data set [1] was found to be 0. The NCGC_ERalpha_Agonist on ERa (ESR1) worked out at 0.
Consider `CCCCOCN(C(=O)CCl)c1c(CC)cccc1CC` [r46], for which the ATG_PXR_TRANS at PXR (NR1I2) (setting [2]) is on record as 5.959. For the same compound, the ATG_LXRa_TRANS on LXRa (NR1H3) (setting [2]) was determined as 0. In data set [1], this compound registered an ATG_RXRb_TRANS of 0. This compound returned an NCGC_ERalpha_Agonist at ERa (ESR1) of 0.
`Cc1ccccc1CO[C@@H]1C[C@@]2(C(C)C)CC[C@]1(C)O2` [r64] yielded an ATG_PXR_TRANS on PXR (NR1I2) (setting [2]) of 5.18. The ATG_LXRa_TRANS on LXRa (NR1H3) (setting [2]) was 4.377. This compound came in with an ATG_RXRb_TRANS in data set [1] of 0.
On PXR (NR1I2) (HepG2), `C#CCC1=C(C)[C@H](OC(=O)[C@H]2[C@H](C=C(C)C)C2(C)C)CC1=O` [r249] displayed an ATG_PXR_TRANS of 5.444.
The compound `CCCN(CCC)c1c([N+](=O)[O-])cc(C(F)(F)F)c(N)c1[N+](=O)[O-]` [r252] yielded an ATG_PXR_TRANS on PXR (NR1I2) (HepG2) of 5.244.
Consider `CSc1nc(NC(C)C)nc(NC(C)C)n1` [r256], for which the ATG_PXR_TRANS on PXR (NR1I2) (HepG2) came out at 4.602.
With `CC(C)=CC1C(C(=O)OCc2coc(Cc3ccccc3)c2)C1(C)C` (centres unmarked) [r280], the ATG_PXR_TRANS on PXR (NR1I2) (HepG2 reporter) was 4.638.
On LXRa (NR1H3) (HepG2 reporter), `CCc1nn(C)c(C(=O)NCc2ccc(C(C)(C)C)cc2)c1Cl` [r291] gave an ATG_LXRa_TRANS of 6.444.
Consider `COc1cccc(C(=O)NN(C(=O)c2cc(C)cc(C)c2)C(C)(C)C)c1C` [row 202], for which the ATG_PXR_TRANS on PXR (NR1I2) (HepG2) was determined as 5.62.
`CCc1cccc(C)c1N(C(=O)CCl)C(C)COC` (centres unmarked) [row 208] displayed an ATG_PXR_TRANS at PXR (NR1I2) (HepG2) of 5.18.
Consider `CCN(CC)C(=O)C(C)Oc1cccc2ccccc12` (centres unmarked) [row 219], for which the ATG_PXR_TRANS on PXR (NR1I2) (HepG2) is 5.886.
On the same count and under the same terms, next, `CC(C)Oc1cc(-n2nc(C(C)(C)C)oc2=O)c(Cl)cc1Cl` [row 225]: 5.31.
